Key:
11β-HSD1 Reductase = 11β-HSD1 Reductase (Rattus norvegicus, UniProt P16232); assay: Metabolism of 3H-11-dehydrocorticosterone back to corticosterone by aortic rings; format: cell-based; design: from tissue; host or cells: rat (Sprague-Dawley) thoracic aortic rings, endothelium intact; settings: 24 hours
Experimental: (§1) The effects of 11β-HSD1 and 11β-HSD2 antisense on the inter-conversion of ^3H-corticosterone and ^3H-11-dehydro-corticosterone by aortic rings was also determined. Rings (2-3 mm) obtained in a similar manner as those in the contraction studies, were incubated in 1 ml DMEM/F12 media containing 1% FBS at 37° C. under 95% O2-5% CO2 in 24-well culture plates. Rings were incubated for 24 hours with: • (i) ^3H-corticosterone (10 nmol/L)±11β-HSD2 or 11β-HSD1 antisense (3 μmol/L); control groups received nonsense oligomers. The amount of ^3H-11-dehydro-corticqsterone in the incubation medium after 24 hrs was then measured. The effects of 11β-HSD1 antisense/nonsense were measured in quadruplicate (n=6 aortic rings per well) and the effects of 11β-HSD2 antisense/nonsense in duplicate (n=8 aortic rings per well), • (ii) ^3H-11-dehydro-corticosterone (10 nmol/L)±11β-HSD1 antisense (3 μmol/L); this experiment was performed in duplicate (n=10 aortic rings per well). Control groups were incubated with the appropriate nonsense oligomer. ^3H-corticosterone in the incubation medium after 24 hrs was then measured. In this experiment, aortic rings were also analyzed for ^3H-corticosterone content. Rings from duplicate incubations (total n=20) were blotted dry, pooled and homogenized in 50 % methanol using a Polytron. […]

11β-HSD1 [1] = assay: Conversion of 3H-corticosterone to 11-dehydrocorticosterone by aortic rings, 11β-HSD1 antisense; format: cell-based, rat; settings: 3H-corticosterone 10 nM, antisense 3 μM, 24 hrs
Experimental: as §1

11β-HSD1 [2] = assay: RT-PCR analysis of 11β-HSD1 expression in cultured vascular cells; format: cell-based; settings: cultured rat vascular endothelial and smooth muscle cells
From the text: (§2) Since 11β-HSD2 appears to exist only in endothelial cells, this observation supports a role for the action of glucocorticoids in affecting endothelial cell function. […] Further experiments to determine whether antisense oligomers down-regulate mRNA and protein expression of their respective 11β-HSD isoform under conditions in which they enhance contractile responses in aortic rings will be done.

rat aortic rings = assay: Contractile response of rat aortic rings to phenylephrine; format: cell-based; settings: rings incubated 24 hours with corticosterone 10 nmol/L and antisense 3 μmol/L; graded phenylephrine
Experimental: Male Sprague-Dawley (1 50-200 g) rats were anesthetized with pentobarbital (50 mg/kg IP), and a median sternotomy was performed followed by the rapid removal of the thoracic aorta. The adventitia was removed, but the endothelium was left intact. The aorta was cut into 2-3 mm rings and individual rings were placed into a single well of a twenty four well culture plate and incubated at 37° C. under 95% O2-5% CO2. Each well contained 1 mL of DMEM/F12 containing 1% fetal bovine serum, streptomycin (100 μg/ml), penicillin (100 units/ml) and amphotericin (0.25 μg/ml). […]
For contraction measurements, aortic rings were suspended by tungsten wires with 1 g of tension and placed in a vessel bath containing serum free DMEM/F12 media at 37° C. aerated with 95% O2-5% CO2, at pH 7.4. […] The intensity of contraction was assessed by use of a Narishige micromanipulator and model FT03 force transducer (Grass Instrument Co. West Warwick, R.I.). Measurements were recorded on computer using the Labview 4.1 Virtual Instrument System (National Instruments, Austin, Tex.).

11β-HSD2 [3] = assay: Conversion of 3H-corticosterone to 11-dehydrocorticosterone by aortic rings, 11β-HSD2 antisense; format: cell-based, rat; settings: antisense 3 μM, 24 hrs
Experimental: as §1

11β-HSD2 [4] = assay: RT-PCR analysis of 11β-HSD2 expression in cultured vascular cells; format: cell-based; settings: cultured rat vascular endothelial and smooth muscle cells
From the text: as §2

11β-HSD1 Reductase, sequence (P16232 whole entry): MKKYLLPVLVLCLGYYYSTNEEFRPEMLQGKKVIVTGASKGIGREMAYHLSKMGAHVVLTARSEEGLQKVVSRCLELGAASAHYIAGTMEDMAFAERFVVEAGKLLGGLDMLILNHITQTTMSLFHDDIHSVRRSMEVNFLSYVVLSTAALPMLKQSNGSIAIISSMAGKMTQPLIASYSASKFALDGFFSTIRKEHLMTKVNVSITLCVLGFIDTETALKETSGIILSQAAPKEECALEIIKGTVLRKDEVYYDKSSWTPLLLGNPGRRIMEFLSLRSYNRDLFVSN

Substance | production of 3H-corticosterone from 3H-11-dehydrocorticosterone, incubation media, compared to nonsense oligomers (11β-HSD1 Reductase; incubation media) | production of 3H-corticosterone from 3H-11-dehydrocorticosterone, aortic ring tissue, compared to nonsense oligomers (11β-HSD1 Reductase; pooled aortic ring tissue) | conversion of corticosterone to 11-dehydrocorticosterone, lower than with 11β-HSD1 nonsense oligomers (11β-HSD1 [1]) | expression of 11β-HSD1 isoform by RT-PCR (11β-HSD1 [2]) | contractile response to phenylephrine compared to corticosterone plus nonsense oligomers (rat aortic rings) | reduction in the conversion of corticosterone to 11-dehydrocorticosterone compared to 11β-HSD2 nonsense (11β-HSD2 [3]) | expression of 11β-HSD2 isoform by RT-PCR (11β-HSD2 [4])
11β-HSD1 antisense: Antisense phosphorothioate oligonucleotide blocking 11β-HSD1 gene expression, 5′-CATAACTGCCGTCCAACAGC-3′ (antisense CATAACTGCCGTCCAACAGC; all phosphorothioate, sugars by position and methylation of C not given here) | markedly reduced | markedly lower | 21% | down-regulate | significantly increased | – | –
11β-HSD2 antisense: Antisense phosphorothioate oligonucleotide blocking 11β-HSD2 gene expression, 5′-AGGCCAGCGCTCCATGACTT-3′ (antisense AGGCCAGCGCTCCATGACTT; all phosphorothioate, sugars by position and methylation of C not given here) | – | – | – | – | statistically significant increase | 24% | down-regulate

Reference: patent US20060148725A1, “Selective 11beta HSD inhibitors and methods of use thereof” (The Miriam Hospital, priority 2001, published 2006)
